# Key:
# [1] = system: spinal nerve ligation-induced neuropathic pain in rats; assay: Rat spinal nerve ligation (SNL) model of neuropathic pain, von Frey paw withdrawal threshold; assay type: in vivo; settings: SNL dose 100 mg/kg; male Sprague Dawley rats, mechanical sensitivity (von Frey)
# From the text: Rat Spinal Nerve Ligation (SNL) Model of Neuropathic Pain.
# A model of spinal nerve ligation-induced (SNL model) neuropathic pain as originally described by Kim and Chung (Kim, S. H. and J. M. Chung, 1992, Pain 50, 355) was used to test a compound of the present application. The male Sprague Dawley rats (Charles River Laboratories, Wilmington, Mass.), weighing 150-175 g at the time of surgery, were placed under isoflurane anesthesia and a 1.5 cm incision was made dorsal to the lumbosacral plexus. The paraspinal muscles (left side) were separated from the spinous processes, the left L5 and L6 spinal nerves isolated, and tightly ligated with 5-0 silk suture distal to the dorsal root ganglion. Care was taken to avoid ligating the L4 spinal nerve. Following spinal nerve ligation, a minimum of 7 days of recovery and no more than 3 weeks was allowed prior to the behavioral testing (mechanical sensitivity). Only rats with threshold scores ≦4.5 g were considered allodynic and utilized in pharmacological experiments.
# Mechanical sensitivity was measured using calibrated von Frey filaments (Stoelting, Wood Dale, Ill.). Paw withdrawal threshold (PWT) was determined by using the Dixon's up-down method (Dixon, W. J., 1980, Ann. Rev. Pharmacol. Toxicol., 20, 441). Rats were placed into inverted individual plastic containers (20×12.5×20 cm) on top of a suspended wire mesh with a 1 cm^2 grid to provide access to the ventral side of the hind paws, and acclimated to the test chambers for 20 minutes. The von Frey filaments were presented perpendicularly to the plantar surface of the selected hind paw, and then held in this position for approximately 8 seconds with enough force to cause a slight bend in the filament. Positive responses included an abrupt withdrawal of the hind paw from the stimulus, or flinching behavior immediately following removal of the stimulus. A 50% withdrawal threshold was determined using an up-down procedure (Dixon, 1980). A percent maximal possible effect (% MPE) of testing compound was calculated according to the formula: (Log [compound-treated threshold]−Log [vehicle-treated threshold])/(Log [maximum threshold]−Log [vehicle-treated threshold])×100%, where the maximum threshold was equal to 15 g.
# (§1) The animals were housed in Association for Assessment and Accreditation of Laboratory Animal Care (AAALAC) approved facilities at AbbVie Inc. in a temperature-regulated environment under a controlled 12-hour light-dark cycle, with lights on at 6:00 a.m. Food and water were available ad libitum at all times except during testing. All testing was done following procedures outlined in protocols approved by AbbVie Inc.s' Institutional Animal Care and Use Committee.
# [2] = target: human Nav1.8 (Homo sapiens (Human), UniProt Q9Y5Y9); assay: FRET-based membrane potential assay, recombinant human sodium channel Nav1.8; assay type: cell-based; settings: HEK293 cells stably expressing recombinant human Nav1.8; depolarization with veratridine (EC80) + scorpion venom
# Chain of human Nav1.8 (Q9Y5Y9 whole entry): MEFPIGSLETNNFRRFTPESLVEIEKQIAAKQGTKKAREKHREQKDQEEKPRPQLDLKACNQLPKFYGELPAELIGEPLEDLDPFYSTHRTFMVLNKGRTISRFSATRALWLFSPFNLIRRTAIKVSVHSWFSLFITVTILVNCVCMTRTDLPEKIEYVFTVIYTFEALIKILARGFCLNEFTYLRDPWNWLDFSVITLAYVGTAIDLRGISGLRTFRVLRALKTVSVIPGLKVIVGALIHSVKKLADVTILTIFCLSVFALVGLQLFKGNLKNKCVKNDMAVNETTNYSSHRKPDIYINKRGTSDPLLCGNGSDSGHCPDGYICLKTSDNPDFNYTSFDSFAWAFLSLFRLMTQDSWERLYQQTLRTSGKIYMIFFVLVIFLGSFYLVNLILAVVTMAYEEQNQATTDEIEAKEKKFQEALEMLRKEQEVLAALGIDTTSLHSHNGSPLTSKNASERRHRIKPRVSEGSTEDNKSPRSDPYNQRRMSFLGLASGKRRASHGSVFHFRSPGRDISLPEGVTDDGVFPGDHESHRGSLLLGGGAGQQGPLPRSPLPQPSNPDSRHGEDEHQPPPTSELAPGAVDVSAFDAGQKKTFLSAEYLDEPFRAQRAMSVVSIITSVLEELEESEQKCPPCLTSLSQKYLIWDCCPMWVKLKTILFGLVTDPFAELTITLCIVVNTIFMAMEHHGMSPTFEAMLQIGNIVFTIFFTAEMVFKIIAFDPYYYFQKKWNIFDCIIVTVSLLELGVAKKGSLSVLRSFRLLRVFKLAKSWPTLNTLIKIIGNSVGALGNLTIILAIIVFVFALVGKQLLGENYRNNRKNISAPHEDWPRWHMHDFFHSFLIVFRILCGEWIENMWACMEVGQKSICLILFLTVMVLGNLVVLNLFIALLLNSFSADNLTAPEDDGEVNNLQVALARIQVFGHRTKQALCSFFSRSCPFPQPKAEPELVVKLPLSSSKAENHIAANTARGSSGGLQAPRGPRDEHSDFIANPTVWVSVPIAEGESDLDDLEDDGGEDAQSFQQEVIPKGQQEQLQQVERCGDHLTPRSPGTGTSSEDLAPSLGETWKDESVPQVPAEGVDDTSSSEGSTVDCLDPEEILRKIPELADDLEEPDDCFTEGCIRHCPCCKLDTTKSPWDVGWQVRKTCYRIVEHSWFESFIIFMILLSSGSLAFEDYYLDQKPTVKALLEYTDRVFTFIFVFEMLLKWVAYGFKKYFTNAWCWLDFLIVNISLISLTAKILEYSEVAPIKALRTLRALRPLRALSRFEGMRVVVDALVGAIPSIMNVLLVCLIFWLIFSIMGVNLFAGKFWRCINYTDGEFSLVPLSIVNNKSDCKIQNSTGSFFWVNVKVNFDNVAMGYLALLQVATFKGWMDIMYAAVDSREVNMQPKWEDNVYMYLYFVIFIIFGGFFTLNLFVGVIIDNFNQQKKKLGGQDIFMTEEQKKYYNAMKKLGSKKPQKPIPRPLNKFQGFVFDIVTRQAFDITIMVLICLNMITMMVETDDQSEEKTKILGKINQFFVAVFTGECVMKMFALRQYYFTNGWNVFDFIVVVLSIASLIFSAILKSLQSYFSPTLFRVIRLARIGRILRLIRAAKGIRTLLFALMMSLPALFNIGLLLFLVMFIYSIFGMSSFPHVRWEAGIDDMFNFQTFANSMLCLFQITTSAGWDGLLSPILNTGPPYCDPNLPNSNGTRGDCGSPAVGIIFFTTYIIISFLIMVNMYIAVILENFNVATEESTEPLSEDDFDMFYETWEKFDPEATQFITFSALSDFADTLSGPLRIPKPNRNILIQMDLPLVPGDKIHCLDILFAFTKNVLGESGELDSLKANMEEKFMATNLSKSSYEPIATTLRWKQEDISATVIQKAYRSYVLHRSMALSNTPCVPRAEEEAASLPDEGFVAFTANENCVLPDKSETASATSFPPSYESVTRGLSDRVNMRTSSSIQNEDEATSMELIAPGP
# Outline: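 HEK293 cells stably expressing Nav1.8 were loaded with CC2-DMPE/DiSBAC2(3) FRET voltage dyes. Compounds were added 3 min before depolarization with EC80 veratridine plus scorpion venom. The F440-480/F565-625 ratio was read on FLIPR; IC50 came from four-parameter Hill fits.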
# [3] = system: MIA-induced osteoarthritic pain in rats; assay: Osteoarthritic (OA) pain induced by sodium monoiodoacetate (MIA), hind limb grip force; assay type: in vivo, rat; settings: male Sprague Dawley rats, grip force 20 days after MIA injection
# Method: Osteoarthritic (OA) Pain Induced by Sodium Monoiodoacetate (MIA)
# Pain behavior was assessed by measurement of hind limb grip force (GF) in adult osteoarthritic rats. Male Sprague Dawley rats, obtained from Charles River Laboratories, (Wilmington, Mass.), weighing 150-175 g, were injected in the unilateral knee join with a single intra-articular injection of sodium monoiodoacetate (MIA, 3 mg/rat). All rats were tested at 20 days following MIA injection. A behavioral measure of activity-induced pain was carried out. Measurements of the peak hind limb grip force were conducted by recording the maximum compressive force (CFmax), in grams of force, exerted on a hind limb strain gauge setup, in a commercially available grip force measurement system (Columbus Instruments, Columbus, Ohio).
# During testing, each rat was gently restrained by grasping it around its rib cage and then allowed to grasp the wire mesh frame attached to the strain gauge. The experimenter then moved the animal in a rostral-to-caudal direction until the grip was broken. Each rat was sequentially tested twice at an approximately 2-3 minute interval to obtain a raw mean grip force (CFmax). This raw mean grip force data was in turn converted to a maximum hindlimb cumulative compressive force (CFmax), as the grams of force/kg of body weight, for each animal.
# For evaluating the compound effects, the hind limb grip force was conducted 20 days following the intra-articular injection of MIA. A group of age-matched nave (not injected with MIA) animals was added as a comparator to the drug-dosed groups. The vehicle control response for each group of MIA-treated animals was defined as the 0% response (0% effect), whereas the nave control group was defined as the normal response and as 100% effect. The % effect for each dose group was expressed as % return of response to normalcy, compared to the nave group. A percent maximal possible effect (% MPE) of testing compound was calculated according to the formula: (Treatment CFmax−Vehicle CFmax)/Vehicle CFmax]×100). Higher % effect numbers indicate increased relief from the pain in the model, with 100% indicating a return to the level of response seen in normal (non-osteoarthritic) animals. All experiments evaluating drug effects in this model were conducted in a randomized blinded fashion.
# as §1, with “Inc.'s” for “Inc.s'”
# [4] = target: human Nav1.7 (Homo sapiens (Human), UniProt Q15858); assay: FRET-based membrane potential assay, recombinant human sodium channel Nav1.7; assay type: cell-based; settings: HEK293 cells stably expressing recombinant human Nav1.7; depolarization with veratridine (EC80) + scorpion venom
# Chain of human Nav1.7 (Q15858 whole entry): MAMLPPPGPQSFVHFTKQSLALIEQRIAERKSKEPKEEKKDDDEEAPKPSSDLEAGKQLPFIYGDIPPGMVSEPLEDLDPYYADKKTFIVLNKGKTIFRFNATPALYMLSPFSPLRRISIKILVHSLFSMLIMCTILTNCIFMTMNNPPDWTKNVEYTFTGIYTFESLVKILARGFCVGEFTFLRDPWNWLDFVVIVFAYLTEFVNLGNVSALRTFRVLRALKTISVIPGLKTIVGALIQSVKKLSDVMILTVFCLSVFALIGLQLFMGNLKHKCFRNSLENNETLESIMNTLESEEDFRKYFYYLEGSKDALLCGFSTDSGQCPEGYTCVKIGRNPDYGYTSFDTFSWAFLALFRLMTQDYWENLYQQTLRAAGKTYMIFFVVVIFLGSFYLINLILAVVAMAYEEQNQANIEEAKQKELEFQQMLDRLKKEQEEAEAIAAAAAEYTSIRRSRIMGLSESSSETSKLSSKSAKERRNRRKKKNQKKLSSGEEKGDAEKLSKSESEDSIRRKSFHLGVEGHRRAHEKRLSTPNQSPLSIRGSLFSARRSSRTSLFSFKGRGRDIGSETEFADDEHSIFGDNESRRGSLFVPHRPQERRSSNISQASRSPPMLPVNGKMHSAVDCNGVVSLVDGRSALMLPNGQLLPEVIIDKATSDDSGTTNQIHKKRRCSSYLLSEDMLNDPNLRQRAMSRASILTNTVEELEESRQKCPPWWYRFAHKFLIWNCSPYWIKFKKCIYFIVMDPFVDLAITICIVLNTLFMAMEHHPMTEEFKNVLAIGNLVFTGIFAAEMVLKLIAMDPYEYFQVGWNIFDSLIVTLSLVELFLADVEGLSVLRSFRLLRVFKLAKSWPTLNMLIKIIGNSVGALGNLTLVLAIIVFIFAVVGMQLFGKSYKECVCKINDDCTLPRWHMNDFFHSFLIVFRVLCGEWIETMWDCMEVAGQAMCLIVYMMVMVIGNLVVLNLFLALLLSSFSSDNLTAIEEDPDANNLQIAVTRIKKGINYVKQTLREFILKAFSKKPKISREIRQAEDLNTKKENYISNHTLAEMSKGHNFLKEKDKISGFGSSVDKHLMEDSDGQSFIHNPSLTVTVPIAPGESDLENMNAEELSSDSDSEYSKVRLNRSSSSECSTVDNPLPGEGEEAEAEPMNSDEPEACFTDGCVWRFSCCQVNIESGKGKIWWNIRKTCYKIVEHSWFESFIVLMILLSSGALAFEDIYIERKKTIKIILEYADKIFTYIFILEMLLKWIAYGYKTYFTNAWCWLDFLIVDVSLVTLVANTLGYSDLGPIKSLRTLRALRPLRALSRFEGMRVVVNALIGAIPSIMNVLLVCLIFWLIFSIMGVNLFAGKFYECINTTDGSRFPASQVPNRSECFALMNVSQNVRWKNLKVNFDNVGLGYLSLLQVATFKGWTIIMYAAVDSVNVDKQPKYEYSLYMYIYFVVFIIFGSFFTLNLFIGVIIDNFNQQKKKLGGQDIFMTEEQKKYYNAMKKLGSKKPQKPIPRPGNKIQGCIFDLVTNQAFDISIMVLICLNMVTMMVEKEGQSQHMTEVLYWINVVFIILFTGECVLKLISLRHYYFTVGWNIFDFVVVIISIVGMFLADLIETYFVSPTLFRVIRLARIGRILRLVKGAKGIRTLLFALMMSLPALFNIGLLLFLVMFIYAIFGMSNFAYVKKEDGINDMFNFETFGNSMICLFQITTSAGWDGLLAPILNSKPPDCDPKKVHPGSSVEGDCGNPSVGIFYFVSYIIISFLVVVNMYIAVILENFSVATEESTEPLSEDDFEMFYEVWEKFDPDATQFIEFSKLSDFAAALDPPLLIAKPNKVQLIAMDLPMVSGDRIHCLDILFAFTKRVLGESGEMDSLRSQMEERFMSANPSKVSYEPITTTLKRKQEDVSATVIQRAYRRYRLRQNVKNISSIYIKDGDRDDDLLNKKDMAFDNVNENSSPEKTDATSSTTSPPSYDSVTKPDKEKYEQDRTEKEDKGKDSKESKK
# Outline: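 IC50 derived by four-parameter Hill fit of percent inhibition of depolarization, measured as peak F440-480/F565-625 ratio over baseline. Stable human Nav1.7 HEK293 cells, dye-loaded with CC2-DMPE and DiSBAC2(3)/VABSC-1 at room temperature, received compound 3 min ahead of veratridine (EC80) plus scorpion venom.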
Structure (SMILES),SNL MPE (%) [1] [%],IC50 [2] [nM],OA MPE (%) ([3]; OA dose 10 mg/kg),IC50 [4] [nM],OA MPE (%) ([3]; OA dose 30 mg/kg)
"CC(C)(C)OC(=O)N1CCN(c2cccc3c2cnn3-c2ccccc2F)C1=O [Example 2, tert-butyl 3-[1-(2-fluorophenyl)-1H-indazol-4-yl]-2-oxoimidazolidine-1-carboxylate]",38,–,–,–,–
"O=C1N(CC(=O)N2C[C@H]3C[C@@H]2CO3)CCN1c1cccc2c1cnn2-c1ccccc1F [Example 25, 1-[1-(2-fluorophenyl)-1H-indazol-4-yl]-3-{2-[(1R,4R)-2-oxa-5-azabicyclo[2.2.1]hept-5-yl]-2-oxoethyl}imidazolidin-2-one]",–,8510,24,499,–
"O=C1N(c2cccc3c2cnn3-c2ccccc2F)CCN1[C@@H]1CCOC1 [Example 32, 1-[1-(2-fluorophenyl)-1H-indazol-4-yl]-3-[(3R)-tetrahydrofuran-3-yl]imidazolidin-2-one]",–,2540,–,4230,65
"Cc1nnc(CN2CCN(c3cccc4c3cnn4-c3ccccc3F)C2=O)s1 [Example 40, 1-[1-(2-fluorophenyl)-1H-indazol-4-yl]-3-[(5-methyl-1,3,4-thiadiazol-2-yl)methyl]imidazolidin-2-one]",–,–,41,3150,–
"Cc1cnc(CN2CCN(c3cccc4c3cnn4-c3ccccc3F)C2=O)o1 [Example 41, 1-[1-(2-fluorophenyl)-1H-indazol-4-yl]-3-[(5-methyl-1,3-oxazol-2-yl)methyl]imidazolidin-2-one]",–,–,47,1570,–
"Cc1nccnc1CN1CCN(c2cccc3c2cnn3-c2ccccc2F)C1=O [Example 43, 1-[1-(2-fluorophenyl)-1H-indazol-4-yl]-3-[(3-methylpyrazin-2-yl)methyl]imidazolidin-2-one]",–,–,–,915,71
"Cc1nnc(CN2CCN(c3cccc4c3cnn4-c3ccccc3F)C2=O)o1 [Example 44, 1-[1-(2-fluorophenyl)-1H-indazol-4-yl]-3-[(5-methyl-1,3,4-oxadiazol-2-yl)methyl]imidazolidin-2-one]",–,–,–,2940,71
"CCc1cc(CN2CCN(c3cccc4c3cnn4-c3ccccc3F)C2=O)on1 [Example 45, 1-[(3-ethyl-1,2-oxazol-5-yl)methyl]-3-[1-(2-fluorophenyl)-1H-indazol-4-yl]imidazolidin-2-one]",–,–,43,1120,–
"CCOc1nnc(CN2CCN(c3cccc4c3cnn4-c3ccccc3F)C2=O)s1 [Example 47, 1-[(5-ethoxy-1,3,4-thiadiazol-2-yl)methyl]-3-[1-(2-fluorophenyl)-1H-indazol-4-yl]imidazolidin-2-one]",–,3980,19,1490,–
"Cc1nc(CN2CCCN(c3cccc4c3cnn4-c3ccccc3F)C2=O)oc1C [Example 48, 1-[(4,5-dimethyl-1,3-oxazol-2-yl)methyl]-3-[1-(2-fluorophenyl)-1H-indazol-4-yl]tetrahydropyrimidin-2(1H)-one]",–,1140,20,2010,–
"O=C1N(Cc2nnc(C3CC3)o2)CCN1c1cccc2c1cnn2-c1ccccc1F [Example 49, 1-[(5-cyclopropyl-1,3,4-oxadiazol-2-yl)methyl]-3-[1-(2-fluorophenyl)-1H-indazol-4-yl]imidazolidin-2-one]",–,538,66,2320,–
"O=C1N(Cc2nnc(C3CCC3)o2)CCN1c1cccc2c1cnn2-c1ccccc1F [Example 50, 1-[(5-cyclobutyl-1,3,4-oxadiazol-2-yl)methyl]-3-[1-(2-fluorophenyl)-1H-indazol-4-yl]imidazolidin-2-one]",–,3080,7,1530,–
"CCS(=O)(=O)N1CC(N2CCN(c3cccc4c3cnn4-c3ccccc3F)C2=O)C1 [Example 51, 1-[1-(ethylsulfonyl)azetidin-3-yl]-3-[1-(2-fluorophenyl)-1H-indazol-4-yl]imidazolidin-2-one]",–,1140,–,3100,16
"O=C(CN1CCN(c2cccc3c2cnn3-c2ccccc2F)C1=O)N1CCC[C@@H](O)C1 [Example 52, 1-[1-(2-fluorophenyl)-1H-indazol-4-yl]-3-{2-[(3R)-3-hydroxypiperidin-1-yl]-2-oxoethyl}imidazolidin-2-one]",–,10100,–,2490,27
"Cc1cccc(-n2ncc3c(N4CCN(CC(=O)N5CC[C@H](F)C5)C4=O)cccc32)c1 [Example 56, 1-{2-[(3S)-3-fluoropyrrolidin-1-yl]-2-oxoethyl}-3-[1-(3-methylphenyl)-1H-indazol-4-yl]imidazolidin-2-one]",–,4630,–,1830,70
"CCC1(O)CN(C(=O)CN2CCN(c3cccc4c3cnn4-c3ccccc3F)C2=O)C1 [Example 205, 1-[2-(3-ethyl-3-hydroxyazetidin-1-yl)-2-oxoethyl]-3-[1-(2-fluorophenyl)-1H-indazol-4-yl]imidazolidin-2-one]",–,1500,–,778,46
"O=C(CN1CCN(c2cccc3c2cnn3-c2ccccc2)C1=O)N1CC[C@H](F)C1 [Example 307, 1-{2-[(3S)-3-fluoropyrrolidin-1-yl]-2-oxoethyl}-3-(1-phenyl-1H-indazol-4-yl)imidazolidin-2-one]",–,1420,–,520,62
"O=C(CN1CCN(c2cccc3c2cnn3-c2ccccc2F)C1=O)NC1(CO)CCC1 [Example 316, 2-{3-[1-(2-fluorophenyl)-1H-indazol-4-yl]-2-oxoimidazolidin-1-yl}-N-[1-(hydroxymethyl)cyclobutyl]acetamide]",–,1650,–,3110,63
"CC1(NC(=O)CN2CCN(c3cccc4c3cnn4-c3ccccc3F)C2=O)CC1 [Example 333, 2-{3-[1-(2-fluorophenyl)-1H-indazol-4-yl]-2-oxoimidazolidin-1-yl}-N-(1-methylcyclopropyl)acetamide]",–,4760,–,2410,86

# From patent publication US9783527B2, “Indazole ureas and method of use” (AbbVie Inc., priority 2014, dated 2017)
